Source: PubChem BioAssay (NCI)
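Each compound was tested at five concentrations against cells in 96-well plates for 48 hours. GI50 is the concentration that inhibits growth by half. TGI denotes the concentration required for complete inhibition of growth.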

What was measured:
Experiment in all cases: DTP human tumour cell line panel, 48 h
OVCAR-8 ovarian = system: OVCAR-8 ovarian
OVCAR-5 ovarian = system: OVCAR-5 ovarian
NCI-H522 lung = system: NCI-H522 lung
SNB-75 CNS = system: SNB-75 CNS
TK-10 renal = system: TK-10 renal
HT29 colon = system: HT29 colon
A498 renal = system: A498 renal
SK-MEL-2 melanoma = system: SK-MEL-2 melanoma
HOP-62 NSCLC = system: HOP-62 NSCLC
SNB-19 CNS = system: SNB-19 CNS

Structure (SMILES)	GI50 (OVCAR-8 ovarian)	TGI (OVCAR-8 ovarian)	GI50 (OVCAR-5 ovarian)	TGI (OVCAR-5 ovarian)	GI50 (NCI-H522 lung)	TGI (NCI-H522 lung)	GI50 (SNB-75 CNS)	TGI (SNB-75 CNS)	GI50 (TK-10 renal)	TGI (TK-10 renal)	GI50 (HT29 colon)	TGI (HT29 colon)	GI50 (A498 renal)	TGI (A498 renal)	GI50 (SK-MEL-2 melanoma)	TGI (SK-MEL-2 melanoma)	GI50 (HOP-62 NSCLC)	TGI (HOP-62 NSCLC)	GI50 (SNB-19 CNS)	TGI (SNB-19 CNS)
O=C1NC(=NCc2cccs2)SC1Cc1ccc2ncccc2c1 (configuration not stated)	> 25 µM	> 25 µM	> 25 µM	> 25 µM	16.1 µM	> 25 µM	7.49 µM	> 25 µM	> 25 µM	> 25 µM	11.7 µM	> 25 µM	13.1 µM	> 25 µM	> 25 µM	> 25 µM	20.1 µM	> 25 µM	> 25 µM	> 25 µM
COc1c(OC(C)=O)cc2c(OC(C)=O)c1CC(C)CC(OC)C(O)C(C)/C=C(\C)C(OC(N)=O)C(OC)/C=C\C=C(/C)C(=O)N2 (configuration not stated)	–	> 100 µM	–	> 100 µM	–	> 41.5 µM	–	> 100 µM	–	> 100 µM	–	> 100 µM	–	> 100 µM	–	> 100 µM	–	> 100 µM	–	> 100 µM
OC(c1ccccc1)(c1ccccc1)c1ccccn1	–	> 100 µM	–	> 100 µM	–	> 100 µM	–	> 100 µM	–	> 100 µM	–	> 100 µM	–	> 100 µM	–	> 100 µM	–	> 100 µM	–	> 100 µM
COc1ccc2c(=O)c([Se]c3coc4cc(OC)ccc4c3=O)coc2c1	–	> 100 µM	–	> 100 µM	–	> 100 µM	–	87.5 µM	–	> 100 µM	–	> 100 µM	–	> 100 µM	–	> 100 µM	–	> 100 µM	–	> 100 µM
CSC1=Nc2c(c(C)c(-c3ccccc3)n2COC(CO)CO)C2=NC(=O)C(C)N12 (configuration not stated)	> 100 µM	> 100 µM	> 100 µM	> 100 µM	> 100 µM	> 100 µM	48.5 µM	> 100 µM	> 100 µM	> 100 µM	> 100 µM	> 100 µM	> 100 µM	> 100 µM	> 100 µM	> 100 µM	> 100 µM	> 100 µM	> 100 µM	> 100 µM
O=C1C2=C(C(=O)c3c(O)ccc(O)c31)N(c1ccc(N3CCOCC3)nc1)Cc1ccccc1O2	0.35 µM	12.3 µM	0.777 µM	2.3 µM	0.0581 µM	0.194 µM	1.24 µM	7.27 µM	0.339 µM	0.947 µM	0.294 µM	0.787 µM	2.3 µM	4.74 µM	1.39 µM	3.75 µM	1.52 µM	3.97 µM	1.45 µM	3.6 µM
O=C(N[C@H](c1ccc(Cl)c(Cl)c1)C1CNC1)c1ccc2cnccc2c1	10.4 µM	23 µM	2.94 µM	16.7 µM	12.9 µM	26.5 µM	0.405 µM	3.68 µM	1.73 µM	10.7 µM	3.24 µM	14.4 µM	1.78 µM	10.5 µM	10.2 µM	22.4 µM	4.34 µM	16.7 µM	8.9 µM	21.5 µM
CC/C(=N\Nc1nc2ccccc2n1C)c1ccccn1	0.0929 µM	14 µM	0.156 µM	15.6 µM	0.0392 µM	2.33 µM	0.478 µM	8.84 µM	0.5 µM	12.3 µM	< 0.0269 µM	18 µM	0.153 µM	0.837 µM	0.589 µM	14.9 µM	0.175 µM	3.34 µM	0.281 µM	14.4 µM
CC1=C(C(=O)Nc2cccc(C(F)(F)F)c2)C(c2ccc(O)cc2)C(C(=O)Nc2cccc(C(F)(F)F)c2)=C(C)N1	–	76.6 µM	–	72.6 µM	–	34.4 µM	–	63.9 µM	–	66.6 µM	–	31.7 µM	–	71.9 µM	–	34.6 µM	–	45.5 µM	–	> 100 µM
COc1cc(/C=C/C(=O)C(=Cc2ccc(F)c(F)c2)C(=O)/C=C/c2ccc(O)c(OC)c2)ccc1O	2.93 µM	11.1 µM	3.25 µM	14.3 µM	1.45 µM	3.12 µM	1.91 µM	5.97 µM	2.67 µM	8.37 µM	1.72 µM	3.63 µM	2 µM	6.95 µM	1.81 µM	3.58 µM	2.87 µM	9.38 µM	3.54 µM	15.9 µM
Nc1nc(N)c2cc(CNc3ccc(Cl)c(Cl)c3)ccc2n1	0.513 µM	1.75 µM	0.756 µM	2.05 µM	0.567 µM	2.01 µM	1.14 µM	2.36 µM	1.42 µM	2.73 µM	0.287 µM	1.65 µM	1.76 µM	8.54 µM	1.52 µM	3.01 µM	0.81 µM	2.05 µM	0.822 µM	2.09 µM
COC(=O)[C@]12CC[C@@H](C)[C@H](C)[C@@H]1C1=CC[C@@H]3[C@@]4(C)C[C@@H](OC(=O)c5ccco5)[C@H](O)[C@@](C)(CO)[C@@H]4[C@H](O)C[C@@]3(C)[C@]1(C)CC2	3.37 µM	10.4 µM	2.13 µM	5.51 µM	1.82 µM	3.96 µM	2.38 µM	11.7 µM	2.49 µM	7.85 µM	1.8 µM	3.41 µM	2.5 µM	7.75 µM	1.97 µM	4.31 µM	2.03 µM	4 µM	3.47 µM	15 µM
Cn1cc(-c2csc(-c3c[nH]c4ncccc34)n2)c2cc(Br)cnc21	3.72 µM	> 100 µM	> 100 µM	> 100 µM	4.86 µM	> 100 µM	2.18 µM	7.35 µM	3.77 µM	> 100 µM	6.75 µM	> 100 µM	10.9 µM	> 100 µM	19.8 µM	66.7 µM	2.39 µM	11.6 µM	6.74 µM	> 100 µM
Nc1nnc2nc(CC(=O)/C=C/c3ccccc3)c(=O)[nH]n12	–	> 100 µM	–	> 100 µM	–	> 100 µM	–	> 100 µM	–	> 100 µM	–	> 100 µM	–	> 100 µM	–	> 100 µM	–	> 100 µM	–	> 100 µM
C=CCN1C(=O)/C(=c2\sc3n(c2=O)C2C(NN=3)N(CC)C(=O)N2CC)c2ccccc21 (configuration not stated)	1.12 µM	> 100 µM	1.55 µM	> 100 µM	0.379 µM	–	0.254 µM	2.98 µM	1.85 µM	> 20.5 µM	0.39 µM	–	0.246 µM	1.17 µM	2.17 µM	> 38.7 µM	1.02 µM	> 53.5 µM	0.973 µM	> 74.9 µM
CCCCCCN(CCCCCC)CCCNc1nccc2ccccc12	1.67 µM	3.19 µM	1.63 µM	4.3 µM	1.44 µM	3.23 µM	1.65 µM	4.22 µM	1.47 µM	3.02 µM	0.513 µM	1.95 µM	1.08 µM	2.8 µM	1.8 µM	3.41 µM	1.46 µM	3.41 µM	2.09 µM	6.01 µM
CC1C2Cc3ccc(O)cc3C1(C)CCN2C (configuration not stated)	–	> 100 µM	–	> 100 µM	–	> 100 µM	–	> 100 µM	–	> 100 µM	–	> 100 µM	–	> 100 µM	–	> 100 µM	–	> 100 µM	–	> 100 µM
O=C(CCCn1c2c(sc3ncccc32)c(=O)n2nnc(-c3ccccc3)c12)NCCc1cnc[nH]1	0.0952 µM	17.3 µM	11.6 µM	32.7 µM	2.95 µM	23 µM	15.1 µM	28.9 µM	13.6 µM	27.9 µM	3.89 µM	54.9 µM	6.84 µM	22.6 µM	17.6 µM	38.9 µM	16.5 µM	32 µM	10.8 µM	33.7 µM
O=C(Oc1cccnc1)c1ccccc1Nc1ccnc(C(F)(F)F)c1	0.413 µM	> 100 µM	0.63 µM	> 95.9 µM	0.402 µM	> 100 µM	> 63.4 µM	> 100 µM	0.369 µM	31.8 µM	0.0487 µM	–	2.48 µM	13.1 µM	20.2 µM	> 100 µM	0.0473 µM	0.214 µM	0.54 µM	> 100 µM
CCOc1ccccc1NC(=O)C(=O)CC(=O)C1=C(C)Nc2ccccc2S1	–	> 100 µM	–	> 100 µM	–	> 100 µM	–	> 100 µM	–	> 100 µM	–	> 100 µM	–	> 100 µM	–	> 100 µM	–	> 100 µM	–	> 100 µM
O=c1[nH]c(=S)[nH]c2c1sc(=S)n2-c1ccccc1	–	> 100 µM	–	> 100 µM	–	> 100 µM	–	> 100 µM	–	> 100 µM	–	> 100 µM	–	> 100 µM	–	> 100 µM	–	> 100 µM	–	> 100 µM
